Key:
Smurf-1 = Smurf-1 (Homo sapiens, UniProt Q9HCE7); test: HECT E3 ligase autoubiquitinylation TR-FRET assay, Smurf-1; type: biochemical; conditions: 45 min incubation, 8-point dose-response
From the text: (§1) To determine the HECT E3 ligase selectivity of the compounds, a panel of biochemical HECT E3 ligase autoubiquitinylation assays was employed (Smurf-1, Smurf-2, WWP1, WWP2, ITCH, Nedd4, Nedd4L and E6AP). The conjugation of ubiquitin to a protein substrate is a multistep process. In an initial ATP-requiring step, a thioester bond is formed between the carboxyl terminus of ubiquitin and an internal cystein residue of the ubiquitin-activating enzyme (E1). Activated ubiquitin is then transferred to a specific cystein residue of an ubiquitin-conjugating enzyme (E2). E2s donate ubiquitin to a HECT E3 ligase (E3) from which it is transferred to the substrate protein. HECT E3 ligases can auto-ubiquitinylate. This event is detected in the TR-FRET (Time-Resolved Fluorescence Resonance Energy Transfer) assay used in this panel. The reaction mix contains E1, E2, tagged-E3, biotin-conjugated ubiquitin, the compound and ATP in a suitable buffer and is incubated for 45 minutes to allow auto-ubiquitinylation of the E3 ligase. To measure the extent of ubiquitinylated E3 ligase by TR-FRET, the donor fluorophore Europium cryptate (Eu3+ cryptate), conjugated to streptavidin which subsequently binds to biotinylated ubiquitin, and the modified allophycocyanin XL665 (HTRF® primary acceptor fluorophore) coupled to a tag-specific antibody (HA, His or GST), which recognizes the respective E3 ligase fusion proteins, are added after the reaction is complete. When these two fluorophores are brought together by a biomolecular interaction (in this case ubiquitinylation of the E3 ligase), a portion of the energy captured by the Cryptate during excitation is released through fluorescence emission at 620 nm, while the remaining energy is transferred to XL665. This energy is then released by XL665 as specific fluorescence at 665 nm. Light at 665 nm is emitted only through FRET with Europium.
(§2) Test and reference compounds are prepared at 180× [final] in 90% DMSO, and diluted 1:3 in 90% DMSO.
(§3) For the biochemical assay panel, 50 nl of the test compounds, reference compounds and buffer/DMSO control are transferred to the respective wells of a 384-well white GREINER “SMALL VOLUME” PS plate. The assay panel is run at room temperature on a Biomek FX liquid handling workstation. To the assay plates containing 50 nl compound or control solutions in 90% DMSO, 4.5 ul of E3 ligase solution were added per well, followed by 4.5 ul of the pre-incubated E1/E2/Ub mix or the pre-diluted ubiquitin (LOW control). Plates are shaken vigorously after each addition. In this assay the compound concentrations range from 3 nM to 10 uM in an 8-point dose-response curve.
(§4) After 45 min of incubation the ubiquitinylation reactions were stopped by adding 4.5 ul 2 mM NEM, immediately followed by 4.5 ul of a detection solution including the XL665-labeled antibody and the streptavidin-coupled europium to give a total volume of 18 ul. After an incubation time of 45 min in the dark, the plates are transferred into the Pherastar fluorescence reader to measure the TR-FRET signal.

Smurf-2 = Smurf-2 (Homo sapiens, UniProt Q9HAU4); test: HECT E3 ligase autoubiquitinylation TR-FRET assay, Smurf-2; type: biochemical; conditions: 45 min incubation, 8-point dose-response
From the text: as §1, §2, §3, §4

Smurf-2, sequence (Q9HAU4 whole entry, species assumed): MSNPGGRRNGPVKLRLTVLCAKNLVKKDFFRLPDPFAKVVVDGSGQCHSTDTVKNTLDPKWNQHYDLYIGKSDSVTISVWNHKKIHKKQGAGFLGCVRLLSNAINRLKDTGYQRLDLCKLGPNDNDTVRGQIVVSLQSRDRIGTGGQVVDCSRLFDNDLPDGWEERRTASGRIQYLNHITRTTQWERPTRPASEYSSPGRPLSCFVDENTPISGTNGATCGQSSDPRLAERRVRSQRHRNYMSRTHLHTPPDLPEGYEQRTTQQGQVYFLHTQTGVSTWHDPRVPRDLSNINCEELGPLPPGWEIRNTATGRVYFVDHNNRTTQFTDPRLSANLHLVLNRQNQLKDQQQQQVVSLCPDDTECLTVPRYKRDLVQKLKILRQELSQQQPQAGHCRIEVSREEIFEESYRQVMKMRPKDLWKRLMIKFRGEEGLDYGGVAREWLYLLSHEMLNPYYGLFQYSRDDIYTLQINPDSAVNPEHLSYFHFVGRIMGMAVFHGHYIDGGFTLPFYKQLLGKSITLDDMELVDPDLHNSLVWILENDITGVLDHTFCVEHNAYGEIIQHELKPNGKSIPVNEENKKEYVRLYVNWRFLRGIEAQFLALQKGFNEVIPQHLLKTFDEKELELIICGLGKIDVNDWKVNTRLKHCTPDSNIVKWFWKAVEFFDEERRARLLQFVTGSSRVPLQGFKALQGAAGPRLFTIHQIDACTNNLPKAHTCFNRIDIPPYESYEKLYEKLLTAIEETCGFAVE
Smurf-1, sequence (Q9HCE7 whole entry): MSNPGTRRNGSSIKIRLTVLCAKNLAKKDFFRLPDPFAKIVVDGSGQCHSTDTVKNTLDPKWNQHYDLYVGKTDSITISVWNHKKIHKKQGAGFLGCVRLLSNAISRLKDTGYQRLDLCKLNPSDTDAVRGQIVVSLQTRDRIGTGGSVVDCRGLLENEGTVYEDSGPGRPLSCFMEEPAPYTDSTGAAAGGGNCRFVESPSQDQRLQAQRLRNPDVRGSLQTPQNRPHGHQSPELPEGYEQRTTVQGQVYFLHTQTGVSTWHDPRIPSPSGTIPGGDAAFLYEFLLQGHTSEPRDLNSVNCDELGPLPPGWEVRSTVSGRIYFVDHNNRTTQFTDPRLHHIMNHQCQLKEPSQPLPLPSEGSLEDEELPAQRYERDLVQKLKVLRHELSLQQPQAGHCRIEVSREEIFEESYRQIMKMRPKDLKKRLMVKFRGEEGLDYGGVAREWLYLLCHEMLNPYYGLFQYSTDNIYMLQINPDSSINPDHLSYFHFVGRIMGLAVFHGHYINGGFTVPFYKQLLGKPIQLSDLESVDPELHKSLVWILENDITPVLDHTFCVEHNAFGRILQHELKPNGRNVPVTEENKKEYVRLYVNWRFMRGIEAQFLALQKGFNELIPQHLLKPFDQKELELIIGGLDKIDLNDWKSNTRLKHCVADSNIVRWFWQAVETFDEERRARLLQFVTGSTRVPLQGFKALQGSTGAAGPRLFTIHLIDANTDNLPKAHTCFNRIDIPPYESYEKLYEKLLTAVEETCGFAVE

Work on Cc1c(C(=O)Nc2c(C)n(C)n(C3CCCCC3)c2=O)noc1-c1ccc(Cl)cc1 [Example 049, 5-(4-Chlorophenyl)-N-(2-cyclohexyl-1,5-dimethyl-3-oxo-2,3-dihydro-1H-pyrazol-4-yl)-4-methylisoxazole-3-carboxamide] yielded an IC50 (Smurf-1) of 23.5 nM and an IC50 (Smurf-2) of 6750 nM.
For COc1ccccc1-c1onc(C(=O)Nc2c(C)n(C)n(C3CCCCC3)c2=O)c1C [Example 051, N-(2-Cyclohexyl-1,5-dimethyl-3-oxo-2,3-dihydro-1H-pyrazol-4-yl)-5-(2-methoxyphenyl)-4-methylisoxazole-3-carboxamide], the IC50 (Smurf-1) was 560 nM and the IC50 (Smurf-2) was > 20100 nM.
Cc1c(C(=O)Nc2c(C)n(C)n(C3CCCCC3)c2=O)noc1-c1ccc2occc2c1 [Example 054, 5-(Benzofuran-5-yl)-N-(2-cyclohexyl-1,5-dimethyl-3-oxo-2,3-dihydro-1H-pyrazol-4-yl)-4-methylisoxazole-3-carboxamide] was tested, and the IC50 (Smurf-1) was 10.8 nM and the IC50 (Smurf-2) was 5000 nM.
For Cc1c(C(=O)Nc2c(C)n(C)n(C3CCCCC3)c2=O)noc1-c1cccc(F)c1F [Example 055, N-(2-Cyclohexyl-1,5-dimethyl-3-oxo-2,3-dihydro-1H-pyrazol-4-yl)-5-(2,3-difluorophenyl)-4-methylisoxazole-3-carboxamide], the IC50 (Smurf-1) was 109 nM and the IC50 (Smurf-2) was > 20200 nM.
Cc1c(C(=O)Nc2c(C)n(C)n(C3CCCCC3)c2=O)noc1-c1ccc(Cl)cc1F [Example 057, 5-(4-Chloro-2-fluorophenyl)-N-(2-cyclohexyl-1,5-dimethyl-3-oxo-2,3-dihydro-1H-pyrazol-4-yl)-4-methylisoxazole-3-carboxamide] gave an IC50 (Smurf-1) of 24 nM and an IC50 (Smurf-2) of 7500 nM.
Cc1c(C(=O)Nc2c(C)n(C)n(-c3ccccc3F)c2=O)noc1-c1ccc2c(c1)CCO2 [Example 062, 5-(2,3-Dihydrobenzofuran-5-yl)-N-(2-(2-fluorophenyl)-1,5-dimethyl-3-oxo-2,3-dihydro-1H-pyrazol-4-yl)-4-methylisoxazole-3-carboxamide] was tested, and the IC50 (Smurf-1) was 965 nM and the IC50 (Smurf-2) was > 20200 nM.
In the case of Cc1c(C(=O)Nc2c(C)n(C)n(C3CCCCC3)c2=O)noc1-c1ccc(Cl)cc1C1CC1 [Example 069, 5-(4-Chloro-2-cyclopropylphenyl)-N-(2-cyclohexyl-1,5-dimethyl-3-oxo-2,3-dihydro-1H-pyrazol-4-yl)-4-methylisoxazole-3-carboxamide], the IC50 (Smurf-1) is reported as 5 nM and the IC50 (Smurf-2) is reported as 3200 nM.
COc1c(C)cccc1-c1onc(C(=O)Nc2c(C)n(C)n(C3CCCCC3)c2=O)c1C [Example 070, N-(2-Cyclohexyl-1 ,5-dimethyl-3-oxo-2,3-dihydro-1H-pyrazol-4-yl)-5-(2-methoxy-3-methylphenyl)-4-methylisoxazole-3-carboxamide] gave an IC50 (Smurf-1) of 33 nM and an IC50 (Smurf-2) of 17800 nM.
For Cc1c(C(=O)Nc2c(C)n(C)n(C3CCCCC3)c2=O)noc1-c1ccc(OCC2CC2)cc1Cl [Example 072, 5-(2-Chloro-4-(cyclopropylmethoxy)phenyl)-N-(2-cyclohexyl-1,5-dimethyl-3-oxo-2,3-dihydro-1H-pyrazol-4-yl)-4-methylisoxazole-3-carboxamide], the IC50 (Smurf-1) was 98 nM and the IC50 (Smurf-2) was > 20200 nM.
In the case of Cc1c(C(=O)Nc2c(C)n(C)n(C3CCCCC3)c2=O)noc1-c1cccc2c1OCCC2 [Example 075, 5-(Chroman-8-yl)-N-(2-cyclohexyl-1,5-dimethyl-3-oxo-2,3-dihydro-1H-pyrazol-4-yl)-4-methyl isoxazole-3-carboxamide], the IC50 (Smurf-1) is reported as 895 nM and the IC50 (Smurf-2) is reported as > 20200 nM.
Cc1cc(C)c(-c2onc(C(=O)Nc3c(C)n(C)n(-c4ccccc4F)c3=O)c2C)c(C)c1 [Example 083, N-(2-(2-fluorophenyl)-1,5-dimethyl-3-oxo-2,3-dihydro-1H-pyrazol-4-yl)-5-mesityl-4-methylisoxazole-3-carboxamide] was tested, and the IC50 (Smurf-1) was 2300 nM and the IC50 (Smurf-2) was > 20200 nM.
COc1ccccc1-c1onc(C(=O)Nc2c(C)n(C)n(-c3ccccc3F)c2=O)c1C [Example 084, N-(2-(2-fluorophenyl)-1,5-dimethyl-3-oxo-2,3-dihydro-1H-pyrazol-4-yl)-5-(2-methoxyphenyl)-4-methylisoxazole-3-carboxamide] was tested, and the IC50 (Smurf-1) was 7150 nM and the IC50 (Smurf-2) was > 20200 nM.
For COc1ccc(-c2onc(C(=O)Nc3c(C)n(C)n(C4CCCCC4)c3=O)c2C2CC2)c(C(F)(F)F)c1 [Example 085, N-(2-Cyclohexyl-1,5-dimethyl-3-oxo-2,3-dihydro-1H-pyrazol-4-yl)-4-cyclopropyl-5-(4-methoxy-2-(trifluoromethyl)phenyl)isoxazole-3-carboxamide], the IC50 (Smurf-1) was 50.5 nM and the IC50 (Smurf-2) was > 20200 nM.
With COc1ccc(-c2onc(C(=O)Nc3c(C)n(C)n(C4CCCCC4)c3=O)c2C2CC2)c(F)c1 [Example 086, N-(2-Cyclohexyl-1,5-dimethyl-3-oxo-2,3-dihydro-1H-pyrazol-4-yl)-4-cyclopropyl-5-(2-fluoro-4-methoxyphenyl) isoxazole-3-carboxamide] the IC50 (Smurf-1) was 260 nM and the IC50 (Smurf-2) was > 20200 nM.

From patent publication US20170088545A1, “CARBOXAMIDE INHIBITORS” (Norvartis AG, priority 2014, published 2017)
